From paper PMC8373063 (2021)

Legend:
[1] = system: RNA Seq4 (RNA, single strand) AAGAAGGAAGGUGC; test: fluorescence polarization; settings: 100 mM NaCl; 20 mM HEPES, 25 °C, 0.5 μM compound
[2] = system: DNA Seq12 (DNA, single strand) TGAAAGAAGGT; test: fluorescence polarization; settings: 100 mM NaCl, 1 mM MgCl2; 20 mM HEPES, 25 °C; 0.5 μM SMN-C2
[3] = system: S11 (DNA, single strand) AAAAGATGGAAGGTGCTC; test: fluorescence polarization; settings: 100 mM NaCl, 1 mM MgCl2; 20 mM HEPES, 25 °C, 0.5 μM compound
[4] = system: RNA Seq23 (RNA, mismatch bulge abasic) GCCAGGCGCACUUUCGAGUGCGCGAAGGAAGGCUGGC; test: fluorescence polarization; settings: 100 mM NaCl; 20 mM HEPES, 25 °C, 0.5 μM compound
[5] = system: RNA Seq17 (RNA, single strand) UGAAGGAAGAU; test: fluorescence polarization; settings: 100 mM NaCl; 20 mM HEPES, 25 °C; 0.5 μM SMN-C2
[6] = system: RNA Seq7 (RNA, single strand) UUAAGGAAGGU; test: fluorescence polarization; settings: 100 mM NaCl; 20 mM HEPES, 25 °C; 0.5 μM SMN-C2
[7] = system: S17 (DNA, single strand) AAAGGAAGGAAGGTGCTC; test: fluorescence polarization; settings: 100 mM NaCl, 1 mM MgCl2; 20 mM HEPES, 25 °C, 0.5 μM compound
[8] = system: S13 (DNA, single strand) AAAAGAAGGTAGGTGCTC; test: fluorescence polarization; settings: 100 mM NaCl, 1 mM MgCl2; 20 mM HEPES, 25 °C, 0.5 μM compound
[9] = system: S25 (DNA, single strand) AAAAGAAGGAAGATGCTC; test: fluorescence polarization; settings: 100 mM NaCl, 1 mM MgCl2; 20 mM HEPES, 25 °C, 0.5 μM compound
[10] = system: DNA Seq13 (DNA, single strand) TGAAGAAAGGT; test: fluorescence polarization; settings: 100 mM NaCl, 1 mM MgCl2; 20 mM HEPES, 25 °C; 0.5 μM SMN-C2
[11] = system: RNA Seq4 (immobilised) (RNA, single strand) AAGAAGGAAGGUGC; test: SPR, immobilised RNA; settings: running buffer not shown; SMN-C2 up to 20 μM
[12] = system: RNA Seq6 (RNA, single strand) UGAAGGAAGGU; test: fluorescence polarization; settings: 100 mM NaCl; 20 mM HEPES, 25 °C; 0.5 μM SMN-C2
[13] = system: RNA Seq10 (RNA, single strand) UAAAGGAAGGU; test: fluorescence polarization; settings: 100 mM NaCl; 20 mM HEPES, 25 °C; 0.5 μM SMN-C2
[14] = system: DNA Seq10 (DNA, single strand) TAAAGGAAGGT; test: fluorescence polarization; settings: 100 mM NaCl, 1 mM MgCl2; 20 mM HEPES, 25 °C; 0.5 μM SMN-C2
[15] = system: DNA Seq21 (DNA, hairpin) GCGCCGACTGAAGGAAGGAGTCGGCGC; test: fluorescence polarization; settings: 100 mM NaCl, 1 mM MgCl2; 20 mM HEPES, 25 °C, 0.5 μM compound
[16] = system: S3 (DNA, single strand) AAAAGAAGGAAGGTGATA; test: fluorescence polarization; settings: 100 mM NaCl, 1 mM MgCl2; 20 mM HEPES, 25 °C, 0.5 μM compound
[17] = system: DNA S8 (DNA, single strand) AAATGAAGGAAGGTGCTC; test: fluorescence polarization; settings: 100 mM NaCl, 1 mM MgCl2; 20 mM HEPES, 25 °C; 0.5 μM SMN-C2
[18] = system: DNA Seq2 (DNA, single strand) GAAGGAAGG; test: fluorescence polarization; settings: 100 mM NaCl, 1 mM MgCl2; 20 mM HEPES, 25 °C; 0.5 μM SMN-C2
[19] = system: DNA S9 (DNA, single strand) AAAATAAGGAAGGTGCTC; test: fluorescence polarization; settings: 100 mM NaCl, 1 mM MgCl2; 20 mM HEPES, 25 °C; 0.5 μM SMN-C2
[20] = system: DNA Seq6 (DNA, single strand) TGAAGGAAGGT; test: ITC; settings: 100 mM NaCl; 30 mM MES pH 6.1, 5% DMSO, 25 °C
[21] = system: DNA Seq9 (DNA, single strand) TTAAGGAAGTT; test: fluorescence polarization; settings: 100 mM NaCl, 1 mM MgCl2; 20 mM HEPES, 25 °C; 0.5 μM SMN-C2
[22] = system: S12 (DNA, single strand) AAAAGAAGTAAGGTGCTC; test: fluorescence polarization; settings: 100 mM NaCl, 1 mM MgCl2; 20 mM HEPES, 25 °C, 0.5 μM compound
[23] = system: RNA Seq18 (binding site 1 sequence) (RNA, mismatch bulge abasic, pseudouridine at 5 and 6 of strand 1) AUACUUACCU/GGAGGUAAGUCU; test: fluorescence polarization; settings: 100 mM NaCl; 20 mM HEPES, 25 °C; 0.5 μM SMN-C2
[24] = system: RNA Seq22 (RNA, other) GUGCCAGUUCGCUGGCACUGAAGGAAGGU; test: fluorescence polarization; settings: 100 mM NaCl; 20 mM HEPES, 25 °C, 0.5 μM compound
[25] = system: DNA Seq14 (DNA, single strand) AGAAGGTAGGT; test: fluorescence polarization; settings: 100 mM NaCl, 1 mM MgCl2; 20 mM HEPES, 25 °C; 0.5 μM SMN-C2
[26] = system: DNA Seq7 (DNA, single strand) TTAAGGAAGGT; test: fluorescence polarization; settings: 100 mM NaCl, 1 mM MgCl2; 20 mM HEPES, 25 °C; 0.5 μM SMN-C2
[27] = system: S24 (DNA, single strand) AAAAGAAGGAAAGTGCTC; test: fluorescence polarization; settings: 100 mM NaCl, 1 mM MgCl2; 20 mM HEPES, 25 °C, 0.5 μM compound
[28] = system: S6 (DNA, single strand) AAAAGAAGGAGGGTGCTC; test: fluorescence polarization; settings: 100 mM NaCl, 1 mM MgCl2; 20 mM HEPES, 25 °C, 0.5 μM compound
[29] = system: DNA Seq11 (DNA, single strand) TGGAGGAAGGT; test: fluorescence polarization; settings: 100 mM NaCl, 1 mM MgCl2; 20 mM HEPES, 25 °C; 0.5 μM SMN-C2
[30] = system: S10 (DNA, single strand) AAAAGTAGGAAGGTGCTC; test: fluorescence polarization; settings: 100 mM NaCl, 1 mM MgCl2; 20 mM HEPES, 25 °C, 0.5 μM compound
[31] = system: DNA Seq6 (DNA, single strand) TGAAGGAAGGT; test: fluorescence polarization; settings: 100 mM NaCl, 1 mM MgCl2; 20 mM HEPES, 25 °C; 0.5 μM SMN-C2
[32] = system: S16 (DNA, single strand) AAAAGAAGGAAGTTGCTC; test: fluorescence polarization; settings: 100 mM NaCl, 1 mM MgCl2; 20 mM HEPES, 25 °C, 0.5 μM compound
[33] = system: S22 (DNA, single strand) AAAAGAAAGAAGGTGCTC; test: fluorescence polarization; settings: 100 mM NaCl, 1 mM MgCl2; 20 mM HEPES, 25 °C, 0.5 μM compound
[34] = system: RNA Seq9 (RNA, single strand) UUAAGGAAGUU; test: fluorescence polarization; settings: 100 mM NaCl; 20 mM HEPES, 25 °C; 0.5 μM SMN-C2
[35] = system: DNA Seq15 (DNA, single strand) TGAAGGATGGT; test: fluorescence polarization; settings: 100 mM NaCl, 1 mM MgCl2; 20 mM HEPES, 25 °C; 0.5 μM SMN-C2
[36] = system: DNA Seq8 (DNA, single strand) TGAAGGAAGTT; test: fluorescence polarization; settings: 100 mM NaCl, 1 mM MgCl2; 20 mM HEPES, 25 °C; 0.5 μM SMN-C2
[37] = system: DNA Seq16 (DNA, single strand) TGAAGGAAAGT; test: fluorescence polarization; settings: 100 mM NaCl, 1 mM MgCl2; 20 mM HEPES, 25 °C; 0.5 μM SMN-C2
[38] = system: S7 (DNA, single strand) AATAGAAGGAAGGTGCTC; test: fluorescence polarization; settings: 100 mM NaCl, 1 mM MgCl2; 20 mM HEPES, 25 °C, 0.5 μM compound

SMILES: CCN1CCN(c2ccc3cc(-c4cn5cc(C)nc(C)c5n4)c(=O)oc3c2)C[C@@H]1C
- Kd [1]: 21.7 ± 4.3 µM
- Kd [2]: 17.6 ± 3.4 µM
- Kd [3]: 26.3 ± 1.2 µM
- Kd [4]: 5.6 ± 1.7 µM
- Kd [5]: 48.2 ± 9.0 µM
- Kd [6]: 42.3 ± 13.3 µM
- Kd [7]: 16.5 ± 1.1 µM
- Kd [8]: 26.4 ± 2.2 µM
- Kd [9]: 48 ± 7.8 µM
- Kd [10]: > 100 µM
- Kd [11]: 5.4 µM
- Kd [12]: 17.5 ± 2.2 µM
- Kd [13]: > 100 µM
- Kd [14]: > 100 µM
- Kd [15]: 12.8 ± 4.7 µM
- Kd [16]: 21.7 ± 2.7 µM
- Kd [17]: 12.4 ± 0.4 µM
- Kd [18]: 34.3 ± 9.6 µM
- Kd [19]: 56.2 ± 13.9 µM
- Kd [20]: 4.8 µM
- Kd [21]: > 100 µM
- Kd [22]: 37.4 ± 6.7 µM
- Kd [23]: 60 ± 36 µM
- Kd [24]: 11.0 ± 0.8 µM
- Kd [25]: > 100 µM
- Kd [26]: > 100 µM
- Kd [27]: 36.8 ± 11.4 µM
- Kd [28]: 33.3 ± 2.3 µM
- Kd [29]: 57.3 ± 20.0 µM
- Kd [30]: 26.4 ± 2.2 µM
- Kd [31]: 3.1 ± 0.7 µM
- Kd [32]: 48.9 ± 12.2 µM
- Kd [33]: 44.7 ± 7.2 µM
- Kd [34]: > 100 µM
- Kd [35]: 41.1 ± 4.4 µM
- Kd [36]: 14.7 ± 0.7 µM
- Kd [37]: 27.4 ± 6.0 µM
- Kd [38]: 17.3 ± 1.7 µM
